Target: T1, Smoothened (SMO) (Homo sapiens, UniProt Q99835)
T1 construct: human SMO transmembrane domain (residues 190-555) fused with N-terminal 10-His tag and thermostabilized apocytochrome b562RIL, in SMA-nanodiscs
T1 sequence (Q99835 190-555): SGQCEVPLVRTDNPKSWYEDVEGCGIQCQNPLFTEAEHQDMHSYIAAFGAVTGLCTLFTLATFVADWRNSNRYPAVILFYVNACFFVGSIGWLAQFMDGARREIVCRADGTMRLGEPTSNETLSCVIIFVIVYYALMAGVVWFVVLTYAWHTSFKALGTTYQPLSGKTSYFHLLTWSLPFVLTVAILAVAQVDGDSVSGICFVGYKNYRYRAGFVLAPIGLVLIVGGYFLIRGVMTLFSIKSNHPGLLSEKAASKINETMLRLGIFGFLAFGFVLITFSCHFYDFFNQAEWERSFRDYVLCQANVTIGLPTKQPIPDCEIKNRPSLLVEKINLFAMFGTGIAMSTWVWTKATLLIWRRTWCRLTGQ
Assay: ligand-observed 1D 1H NMR titration (line broadening), purified SMO in SMA-nanodiscs
Format: binding

Row | Compound | Kd [nM]
1 | CN[C@H]1CC[C@H](N(Cc2cccc(-c3ccncc3)c2)C(=O)c2sc3ccccc3c2Cl)CC1 [SAG] | 15.9 ± 4.4
2 | Cc1nn(-c2ccccc2)c(C)c1/C=N/N1CCN(Cc2ccccc2)CC1 [SANT-1] | 2.3 ± 1.2

Reference: publication PMC9074879, “Solubilization, purification, and ligand binding characterization of G protein-coupled receptor SMO in native membrane bilayer using styrene maleic acid copolymer” (PeerJ, 2022)
